biological target: human MRGPRD (Homo sapiens, UniProt Q8TDS7); assay: MRGPRD antagonist activity, IP-One HTRF assay in CHO cells stably expressing human MRGPRD (versus 100 μM β-Alanine agonist); type: cell-based
In short: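 Cells (20,000/well, plated overnight) received antagonist and agonist in buffer with 5.7 mM Tris-HCl, 43 mM NaCl and 50 mM LiCl at pH 8. Incubation ran 1 h at 37 °C, then 1 h at room temperature, before IP-1 HTRF detection. IC50 was fitted from the HTRF ratio, and percent antagonism was taken relative to the maximum efficacy response, given as averages with SEM.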

human MRGPRD, sequence (Q8TDS7 whole entry): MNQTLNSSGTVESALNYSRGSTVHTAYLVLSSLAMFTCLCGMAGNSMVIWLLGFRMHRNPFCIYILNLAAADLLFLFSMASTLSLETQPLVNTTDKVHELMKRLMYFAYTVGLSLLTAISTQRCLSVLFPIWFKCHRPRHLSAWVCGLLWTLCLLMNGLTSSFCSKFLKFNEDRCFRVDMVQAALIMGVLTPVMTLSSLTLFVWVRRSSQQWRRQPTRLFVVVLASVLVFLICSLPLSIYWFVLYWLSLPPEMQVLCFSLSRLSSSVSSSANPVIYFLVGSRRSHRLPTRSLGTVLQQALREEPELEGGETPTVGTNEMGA

Compound | IC50
COc1cccc(-c2nn([C@H]3CCCN(C(=O)Nc4cccc(N(C)C)c4)C3)c3ncccc23)c1 [Compound 20-3] | 1000 to 3000 nM
COc1cccc(-c2nc(C3CCCN(C(=O)Nc4ccccc4F)C3)n3cc(C)ccc23)c1 (stereo not shown) [Compound 18-1, N-(2-fluorophenyl)-3-(1-(3-methoxyphenyl)-6-methylimidazo[1,5-a]pyridin-3-yl)piperidine-1-carboxamide] | 100 to 500 nM
CN(C)c1ccc(NC(=O)N2CCC[C@@H](c3nc(-c4cnoc4)c4ccccn34)C2)cc1 [Compound 10-53] | 500 to 1000 nM
COc1cccc(-c2nc([C@@H]3CCCN(C(=O)Nc4ccc(N(C)C)c(F)c4)C3)n3ccccc23)c1 [Compound 1-6] | < 100 nM
COc1cccc(-c2nc(C3CCCN(C(=O)Nc4ccc(C#N)cc4)C3)n3ccccc23)c1 (stereo not shown) [Compound 4-4] | 500 to 1000 nM
COc1cccc(-c2nc(C3CCCN(S(=O)(=O)Cc4cccc(F)c4)C3)n3ccccc23)c1 (stereo not shown) [Compound 16-4] | 100 to 500 nM
CN(C)c1ccc(NC(=O)N2CCC[C@@H](c3nc(-c4csc5ccccc45)c4ccccn34)C2)cc1 [Compound 10-47] | 100 to 500 nM
COc1ccc(NC(=O)N2CCCC(c3nc(-c4cccc(OC)c4)c4ccccn34)C2)cc1 (stereo not shown) [Compound 3-19] | 100 to 500 nM
COc1cccc(-c2nc(C3CCCN(C(=O)Nc4ccc(Cl)cc4)C3)n3ccccc23)c1 (stereo not shown) [Compound 3-20] | 500 to 1000 nM
COc1cccc(-c2nc(C3CCCN(C(=O)c4ccccc4F)C3)n3ccccc23)c1 (stereo not shown) [Compound 12-5] | 500 to 1000 nM
COc1cccc(-c2nc(C3CCCN(C(=O)Cc4cccc(F)c4)C3)n3ccccc23)c1 (stereo not shown) [Compound 12-4] | 100 to 500 nM
CC(=O)c1ccc(-c2nc([C@@H]3CCCN(C(=O)Nc4ccc(N(C)C)cc4)C3)n3ccccc23)s1 [Compound 10-57] | 500 to 1000 nM
COc1cccc(-c2nc([C@@H]3CCCN(C(=O)Nc4ccc5nc(C(C)(C)C)[nH]c5c4)C3)n3ccccc23)c1 [Compound 5-42] | < 100 nM
CN(C)Cc1cccc(-c2nc([C@@H]3CCCN(C(=O)Nc4ccc(N(C)C)cc4)C3)n3ccccc23)c1 [Compound 10-64] | > 3000 nM
COCc1cccc(-c2nc([C@@H]3CCCN(C(=O)Nc4ccc(N(C)C)cc4)C3)n3ccccc23)c1 [Compound 10-67] | 1000 to 3000 nM
COc1cccc(-c2nc([C@@H]3CCCN(C(=O)NCCN(C)C)C3)n3ccccc23)c1 [Compound 1-29] | 500 to 1000 nM
O=C(Nc1ccccc1F)N1CCCC(c2nc(-c3cccc(F)c3)c3ccccn23)C1 (stereo not shown) [Compound 11-5] | 1000 to 3000 nM
COc1cccc(-c2nc([C@@H]3CCCN(C(=O)Nc4ccccc4CN(C)C)C3)n3ccccc23)c1 [Compound 1-21] | 500 to 1000 nM
COc1cccc(-c2nc([C@@H]3CCCN(C(=O)Nc4cccc(C(C)=O)c4)C3)n3ccccc23)c1 [Compound 5-15] | < 100 nM
CCc1cccc(-c2nc([C@@H]3CCCN(C(=O)Nc4ccc(N(C)C)cc4)C3)n3ccccc23)c1 [Compound 10-9] | 500 to 1000 nM
CN(C)c1ccc(NC(=O)N2CCC[C@@H](c3nc(C4=CCCCC4)c4ccccn34)C2)cc1 [Compound 10-44] | 100 to 500 nM
COc1cccc(-c2nc(C3CN(C(=O)Nc4ccc(N(C)C)cc4)C3)n3ccccc23)c1 [Compound 23-2] | > 3000 nM

Compound | IC50
COc1cccc(-c2nc([C@@H]3CCCN(C(=O)Nc4cccc(N(C)C)c4)C3)n3ccccc23)c1 [Compound 5-36] | 100 to 500 nM
COc1cccc(-c2nc([C@@H]3CCCN(C(=O)Nc4ccc5c(c4)ncn5C)C3)n3ccccc23)c1 [Compound 5-51] | < 100 nM
COc1cccc(-c2nc([C@@H]3CCCN(C(=O)Nc4cccc(C(F)(F)F)c4)C3)n3ccccc23)c1 [Compound 1-22] | 500 to 1000 nM
COc1cccc(-c2nc(C3CCCN(C(=O)Nc4cccc(F)c4)C3)n3ccccc23)c1 (stereo not shown) [Compound 3-3] | 100 to 500 nM
COc1cccc(-c2nc([C@@H]3CCCN(C(=O)Nc4ccc(C(=O)N(C)C)cc4)C3)n3ccccc23)c1 [Compound 1-20] | < 100 nM
COc1cccc(-c2nc([C@@H]3CCCN(C(=O)Nc4ccc(C)cc4C)C3)n3ccccc23)c1 [Compound 5-25] | < 100 nM
CN(C)c1ccc(NC(=O)N2CCC[C@@H](c3nc(-c4ccccc4C(F)F)c4ccccn34)C2)cc1 [Compound 10-32] | 1000 to 3000 nM
COc1cccc(-c2nc([C@@H]3CCCN(C(=O)NC4CCc5ccccc5C4)C3)n3ccccc23)c1 (stereo partly shown) [Compound 5-38] | 100 to 500 nM
COC/C=C/c1nc([C@@H]2CCCN(C(=O)Nc3ccc(N(C)C)cc3)C2)n2ccccc12 [Compound 10-39] | > 3000 nM
COc1cccc(-c2nc([C@@H]3CCCN(C(=O)Nc4ccccc4N(C)C)C3)n3ccccc23)c1 [Compound 5-37] | 100 to 500 nM
COc1cccc(-c2nc([C@@H]3CCCN(C(=O)Nc4cnc(C)nc4)C3)n3ccccc23)c1 [Compound 5-73] | < 100 nM
COc1cccc(-c2nc(C3CCCN(C(=O)N(C)c4ccccc4F)C3)n3ccccc23)c1 (stereo not shown) [Compound 1-3] | 1000 to 3000 nM
COc1cccc(-c2nn(C3CCCN(C(=O)Nc4ccc(N(C)C)cc4)C3)c3ncccc23)c1 (stereo not shown) [Compound 9-1, N-(4-(dimethylamino)phenyl)-3-(3-(3-methoxyphenyl)-1H-pyrazolo[3,4-b]pyridin-1-yl)piperidine-1-carboxamide] | < 100 nM
O=C(Nc1ccccc1F)N1CCCC(c2nc(-c3ccccn3)c3ccccn23)C1 (stereo not shown) [Compound 11-11] | > 3000 nM
COc1cccc(-c2nc([C@@H]3CCCN(C(=O)NCCc4ccnn4C)C3)n3ccccc23)c1 [Compound 10-25] | 100 to 500 nM
COc1cccc(-c2nc([C@@H]3CCCN(C(=O)Nc4ccc5c(c4)OCO5)C3)n3ccccc23)c1 [Compound 5-27] | < 100 nM
CNC(=O)N1CCCC(c2nc(-c3cccc(OC)c3)c3ccccn23)C1 (stereo not shown) [Compound 3-13] | > 3000 nM
COc1cccc(-c2nn([C@@H]3CCCN(C(=O)Nc4cccc(N(C)C)c4)C3)c3ncccc23)c1 [Compound 20-2] | < 100 nM
COc1cccc(-c2nc([C@@H]3CCCN(C(=O)Nc4cccc(F)c4)C3)n3ccccc23)c1 [Compound 1-14] | 100 to 500 nM
COc1cccc(-c2nc(C3CCCN(C(=O)Nc4ccc(C)cc4)C3)n3ccccc23)c1 (stereo not shown) [Compound 3-5] | 100 to 500 nM
COc1cccc(-c2nc(C3CCCN(C(=O)Cc4ccccc4OC)C3)n3c(OC)cccc23)c1 (stereo not shown) [Compound 15-1, 1-(3-(5-methoxy-1-(3-methoxyphenyl)imidazo[1,5-a]pyridin-3-yl)piperidin-1-yl)-2-(2-methoxyphenyl)ethan-1-one] | 500 to 1000 nM

From patent US20240246980A1, “MODULATORS OF MAS-RELATED G-PROTEIN RECEPTOR D AND RELATED PRODUCTS AND METHODS” (Escient Pharmaceuticals, Inc., priority 2022, published 2024)
